Source: ChEMBL document CHEMBL3885881, “DrugMatrix”

Organism: Rattus norvegicus
Assay: DrugMatrix - Regimen: Daily Repeat
Format: toxicity, organism-based, Sprague-Dawley
Set-up: regimen Daily Repeat, gender Male, age 6-8 weeks
Settings: in vivo, po, route oral GAVAGE; for TOTAL BILIRUBIN / TOTAL PROTEIN / URIC ACID / ALANINE AMINOTRANSFERASE / ALBUMIN / ALKALINE PHOSPHATASE / ASPARTATE AMINOTRANSFERASE / BLOOD UREA NITROGEN / CARBON DIOXIDE / CHLORIDE / CHOLESTEROL / CREATINE PHOSPHOKINASE / CREATININE / GLUCOSE / LIPASE / PHOSPHORUS / POTASSIUM / SODIUM / LACTATE DEHYDROGENASE: tissue Plasma; for ABSOLUTE BASOPHIL / ABSOLUTE EOSINOPHIL / ABSOLUTE LYMPHOCYTE / ABSOLUTE MONOCYTE / BASOPHIL / EOSINOPHIL / ERYTHROCYTE COUNT / HEMATOCRIT / HEMOGLOBIN / LEUKOCYTE COUNT / LYMPHOCYTE / MEAN CORPUSCULAR HEMOGLOBIN / MEAN CORPUSCULAR HEMOGLOBIN CONCENTRATION / MEAN CORPUSCULAR VOLUME / MONOCYTE / NEUTROPHIL / PLATELET COUNT: tissue Blood
[1] = 40 mg/kg, 72 h, dose level Low, time 3 day, […]
[2] = 40 mg/kg, 120 h, dose level Low, time 5 day, […]
[3] = 40 mg/kg, […], dose level Low, time 14 day
[4] = 75 mg/kg, 72 h, dose level High, time 3 day, vehicle 100 % WATER
[5] = 75 mg/kg, 120 h, dose level High, time 5 day, vehicle 100 % WATER

With `C=CCN` [ALLYLAMINE] the “TOTAL BILIRUBIN” value [1] was 0.37 mg/dL, the “TOTAL PROTEIN” value [1] was 6.2 G/DL and the “URIC ACID” value [1] was 0.87 mg/dL. For the same compound, the ABSOLUTE BASOPHIL [2] was 43.3 cells/µL, the ABSOLUTE EOSINOPHIL [2] was 90 cells/µL and the ABSOLUTE LYMPHOCYTE [2] was 7670 cells/µL. For the same compound, the ABSOLUTE MONOCYTE [2] was 220 cells/µL, the BASOPHIL [2] was 0.4% and the EOSINOPHIL [2] was 0.87%. The “ERYTHROCYTE COUNT” value [2] was 6.74 x10E6/uL, the HEMATOCRIT [2] was 45.3% and the HEMOGLOBIN [2] was 14.1 G/DL. For the same compound, the “LEUKOCYTE COUNT” value [2] was 9.63 x10E3/uL, the LYMPHOCYTE [2] was 79.33% and the “MEAN CORPUSCULAR HEMOGLOBIN” value [2] was 20.87 pg. The “MEAN CORPUSCULAR HEMOGLOBIN CONCENTRATION” value [2] was 31 G/DL, the “MEAN CORPUSCULAR VOLUME” value [2] was 67.23 fL and the MONOCYTE [2] was 2.27%. For the same compound, the NEUTROPHIL [2] was 16.57%, the “PLATELET COUNT” value [2] was 1351.33 x10E3/uL and the “ALANINE AMINOTRANSFERASE” value [2] was 42.33 u/L. The ALBUMIN [2] was 4.03 G/DL, the “ALKALINE PHOSPHATASE” value [2] was 470.67 u/L and the “ASPARTATE AMINOTRANSFERASE” value [2] was 72.67 u/L. The “BLOOD UREA NITROGEN” value [2] was 16 mg/dL, the “CARBON DIOXIDE” value [2] was 41 mmol/L and the CHLORIDE [2] was 105.33 MEQ/L. For the same compound, the CHOLESTEROL [2] was 72 mg/dL, the “CREATINE PHOSPHOKINASE” value [2] was 350.33 u/L and the CREATININE [2] was 0.53 mg/dL. For the same compound, the GLUCOSE [2] was 155.33 mg/dL, the LIPASE [2] was 249.67 u/L and the PHOSPHORUS [2] was 9.53 mg/dL. For the same compound, the POTASSIUM [2] was 6.27 MEQ/L, the SODIUM [2] was 147.33 MEQ/L and the “TOTAL BILIRUBIN” value [2] was 0.47 mg/dL. The “TOTAL PROTEIN” value [2] was 6.63 G/DL, the “URIC ACID” value [2] was 0.9 mg/dL and the ABSOLUTE BASOPHIL [3] was 50 cells/µL. For the same compound, the ABSOLUTE EOSINOPHIL [3] was 42 cells/µL, the ABSOLUTE LYMPHOCYTE [3] was 10000 cells/µL and the ABSOLUTE MONOCYTE [3] was 250 cells/µL. The BASOPHIL [3] was 0.38%, the EOSINOPHIL [3] was 0.34% and the “ERYTHROCYTE COUNT” value [3] was 7.47 x10E6/uL. The HEMATOCRIT [3] was 46.98%, the HEMOGLOBIN [3] was 15.52 G/DL and the “LEUKOCYTE COUNT” value [3] was 12.8 x10E3/uL. The LYMPHOCYTE [3] was 78.9%, the “MEAN CORPUSCULAR HEMOGLOBIN” value [3] was 20.78 pg and the “MEAN CORPUSCULAR HEMOGLOBIN CONCENTRATION” value [3] was 33.02 G/DL. For the same compound, the “MEAN CORPUSCULAR VOLUME” value [3] was 62.96 fL, the MONOCYTE [3] was 1.9% and the NEUTROPHIL [3] was 17.96%. The “PLATELET COUNT” value [3] was 1148.8 x10E3/uL, the “ALANINE AMINOTRANSFERASE” value [3] was 29 u/L and the ALBUMIN [3] was 4.18 G/DL. For the same compound, the “ALKALINE PHOSPHATASE” value [3] was 389.8 u/L, the “ASPARTATE AMINOTRANSFERASE” value [3] was 69.2 u/L and the “BLOOD UREA NITROGEN” value [3] was 13.8 mg/dL. The “CARBON DIOXIDE” value [3] was 44.6 mmol/L, the CHLORIDE [3] was 102.4 MEQ/L and the CHOLESTEROL [3] was 74.2 mg/dL. The “CREATINE PHOSPHOKINASE” value [3] was 240 u/L, the CREATININE [3] was 0.76 mg/dL and the GLUCOSE [3] was 131.8 mg/dL. For the same compound, the “LACTATE DEHYDROGENASE” value [3] was 199 u/L, the LIPASE [3] was 11.2 u/L and the PHOSPHORUS [3] was 9.98 mg/dL. For the same compound, the POTASSIUM [3] was 6.2 MEQ/L, the SODIUM [3] was 145.8 MEQ/L and the “TOTAL BILIRUBIN” value [3] was 0.4 mg/dL. The “TOTAL PROTEIN” value [3] was 6.92 G/DL, the “URIC ACID” value [3] was 0.58 mg/dL and the BASOPHIL [4] was 0.63%. For the same compound, the EOSINOPHIL [4] was 0.23%, the “ERYTHROCYTE COUNT” value [4] was 6.73 x10E6/uL and the HEMATOCRIT [4] was 44.27%. The HEMOGLOBIN [4] was 14.4 G/DL, the “LEUKOCYTE COUNT” value [4] was 16.4 x10E3/uL and the LYMPHOCYTE [4] was 77.37%. The “MEAN CORPUSCULAR HEMOGLOBIN” value [4] was 21.43 pg, the “MEAN CORPUSCULAR HEMOGLOBIN CONCENTRATION” value [4] was 32.6 G/DL and the “MEAN CORPUSCULAR VOLUME” value [4] was 65.77 fL. The MONOCYTE [4] was 2.5%, the NEUTROPHIL [4] was 16.67% and the “PLATELET COUNT” value [4] was 1260.67 x10E3/uL. For the same compound, the “ALANINE AMINOTRANSFERASE” value [4] was 39 u/L, the ALBUMIN [4] was 3.9 G/DL and the “ALKALINE PHOSPHATASE” value [4] was 237 u/L. The “ASPARTATE AMINOTRANSFERASE” value [4] was 74.33 u/L, the “BLOOD UREA NITROGEN” value [4] was 13.67 mg/dL and the “CARBON DIOXIDE” value [4] was 24.67 mmol/L. For the same compound, the CHLORIDE [4] was 108 MEQ/L, the CHOLESTEROL [4] was 104.33 mg/dL and the “CREATINE PHOSPHOKINASE” value [4] was 169 u/L. For the same compound, the CREATININE [4] was 0.4 mg/dL, the GLUCOSE [4] was 146 mg/dL and the “LACTATE DEHYDROGENASE” value [4] was 59 u/L. The LIPASE [4] was 35.33 u/L, the PHOSPHORUS [4] was 11.03 mg/dL and the POTASSIUM [4] was 5.8 MEQ/L. The SODIUM [4] was 151 MEQ/L, the “TOTAL BILIRUBIN” value [4] was 0.23 mg/dL and the “TOTAL PROTEIN” value [4] was 6.07 G/DL. For the same compound, the “URIC ACID” value [4] was 1.93 mg/dL, the BASOPHIL [5] was 0.35% and the EOSINOPHIL [5] was 0.7%. The “ERYTHROCYTE COUNT” value [5] was 6.38 x10E6/uL, the HEMATOCRIT [5] was 42.1% and the HEMOGLOBIN [5] was 13.35 G/DL. For the same compound, the “LEUKOCYTE COUNT” value [5] was 11.54 x10E3/uL, the LYMPHOCYTE [5] was 82.75% and the “MEAN CORPUSCULAR HEMOGLOBIN” value [5] was 20.9 pg. The “MEAN CORPUSCULAR HEMOGLOBIN CONCENTRATION” value [5] was 31.65 G/DL, the “MEAN CORPUSCULAR VOLUME” value [5] was 66.05 fL and the MONOCYTE [5] was 2%. For the same compound, the NEUTROPHIL [5] was 6.45%, the “PLATELET COUNT” value [5] was 1169 x10E3/uL and the “ALANINE AMINOTRANSFERASE” value [5] was 28.5 u/L. For the same compound, the ALBUMIN [5] was 4 G/DL, the “ALKALINE PHOSPHATASE” value [5] was 238.5 u/L and the “ASPARTATE AMINOTRANSFERASE” value [5] was 69.5 u/L. The “BLOOD UREA NITROGEN” value [5] was 17.5 mg/dL, the “CARBON DIOXIDE” value [5] was 23 mmol/L and the CHLORIDE [5] was 107.5 MEQ/L. For the same compound, the CHOLESTEROL [5] was 62 mg/dL, the “CREATINE PHOSPHOKINASE” value [5] was 269 u/L and the CREATININE [5] was 0.25 mg/dL. For the same compound, the GLUCOSE [5] was 145 mg/dL, the “LACTATE DEHYDROGENASE” value [5] was 62 u/L and the LIPASE [5] was 19 u/L. The PHOSPHORUS [5] was 13.95 mg/dL, the POTASSIUM [5] was 7.05 MEQ/L and the SODIUM [5] was 149.5 MEQ/L. The “TOTAL BILIRUBIN” value [5] was 0.4 mg/dL, the “TOTAL PROTEIN” value [5] was 6.15 G/DL and the “URIC ACID” value [5] was 2.85 mg/dL.
